Assay results reported in patent US20240425523A1, “Compounds for the Degradation of EGFR Kinase” (Beigene Switzerland GMBH, priority 2023, published 2024).

Columns and labels:
Format in all cases: cell-based
[1] = molecular target: T1, EGFR-L858R/C797S (H1975-clone #8 cells) (Homo sapiens, UniProt P00533, C797S/L858R); assay: Cell degradation of EGFR, HTRF assay, H1975-clone#8 (L858R/C797S) cells; conditions: 16 h treatment; for DC50: EGFR degradation; for Dmax: maximum percentage of degradation
T1 construct: expressed in transfected cells; host or cells: H1975 (endogenous EGFR knocked out, clone #8)

[2] = molecular target: p-EGFR Del19/C797S (H1975-clone #23 cells) (Homo sapiens, UniProt P00533); assay: Cell p-EGFR inhibition assay, HTRF, H1975-clone#23 (DEL19/C797S) cells; conditions: 16 h treatment; for Imax (%): maximum percentage of pEGFR inhibition; for IC50: pEGFR inhibition
Outline: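 Phospho-EGFR read by overnight HTRF on lysates, normalized to DMSO-treated high control; IC50, Hill slope and Imax fitted. Compounds were applied for 16 h (10 uM top, 5-fold steps, 8 doses) to an H1975 single clone carrying only exogenous Del19/C797S EGFR after sgRNA knockout of endogenous copies.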

[3] = molecular target: T2, EGFR L858R (BaF3-L858R cells) (Homo sapiens, UniProt P00533, L858R); assay: Cell degradation of EGFR, HTRF assay, BaF3-L858R cells; conditions: 16 h treatment; for DC50: EGFR degradation; for Dmax: maximum percentage of degradation
T2 construct: host or cells: BaF3
Outline: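 EGFR L858R levels measured by HTRF antibody pair in lysed BaF3-L858R cells after 16 h compound exposure (8-point 5-fold series from 10 uM final, 37° C). Degradation is relative to DMSO-only cells; DC50 fitted with Hill equation, Dmax taken as the largest percent loss.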

[4] = molecular target: T3, p-EGFR L858R (BaF3-L858R cells) (Homo sapiens, UniProt P00533, L858R); assay: Cell p-EGFR inhibition assay, HTRF, BaF3-L858R cells; conditions: 16 h treatment; for Imax (%): maximum percentage of pEGFR inhibition; for IC50: pEGFR inhibition
T3 construct: host or cells: BaF3
Outline: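 BaF3-L858R cells treated 16 h at 37 °C, 5% CO2 with compound from 10 uM top, 5-fold dilutions, 8 doses, in 0.1% DMSO medium. Lysates read overnight by HTRF p-EGFR antibodies; IC50 fitted to four-parameter curve against DMSO high control.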

| Compound | DC50 [1] [nM] | Dmax [1] [%] | Imax (%) [2] [%] | IC50 [2] [nM] | DC50 [3] [nM] | Dmax [3] [%] | Imax (%) [4] [%] | IC50 [4] [nM] |
| --- | --- | --- | --- | --- | --- | --- | --- | --- |
| COC[C@@H]1CN(c2ccc3c(c2)N2CC4CC[C@H](COc5c(cnn5C)-c5cc(cc(C)n5)C(=O)/N=C/2N3)C4)CCN1CC1CN(c2cc(F)c([C@H]3CCC(=O)NC3=O)c(F)c2)C1 [Example 86, (R)-3-(4-(3-(((S)-4-((7^1R,7^3S,E)-1^1,2^6-dimethyl-3-oxo-5^2,5^3-dihydro-1^1H,5^1H-9-oxa-4-aza-5(2,1)-benzo[d]imidazola-2(2,4)-pyridina-1(4,5)-pyrazola-7(1,3)-cyclopentanacyclononaphane-5^6-yl)-2-(methoxymethyl)piperazin-1-yl)methyl)azetidin-1-yl)-2,6-difluorophenyl)piperidine-2,6-dione] | 3.22 | 66 | 100.2 | 3 | 2.74 | 70.3 | 97.1 | 17.2 |
| COC[C@@H]1CN(c2cc3c(cc2F)N/C2=N\C(=O)c4cc(C)nc(c4)-c4cnn(C)c4OC[C@H]4CCC(C4)CN23)CCN1C1CCN(c2cc(F)c([C@H]3CCC(=O)NC3=O)c(F)c2)CC1 [Example 87, (R)-3-(2,6-difluoro-4-(4-((S)-4-((7^1R,7^3S,E)-5^5-fluoro-1^1,2^6-dimethyl-3-oxo-5^2,5^3-dihydro-1^1H,5^1H-9-oxa-4-aza-5(2,1)-benzo[d]imidazola-2(2,4)-pyridina-1(4,5)-pyrazola-7(1,3)-cyclopentanacyclononaphane-5^6-yl)-2-(methoxymethyl)piperazin-1-yl)piperidin-1-yl)phenyl)piperidine-2,6-dione] | 8.71 | 70.8 | 100.3 | 1.5 | 2.86 | 64.1 | 96.2 | 13.8 |
| Cc1cc2cc(n1)-c1cnn(C)c1OC[C@H]1CCC(C1)CN1/C(=N/C2=O)Nc2ccc(N3CCN(C4CCN(c5ccc(OC6CCC(=O)NC6=O)cc5F)CC4)CC3)cc21 (stereo partly shown) [Example 88, 3-(4-(4-(4-((7^1R,7^3S,E)-1^1,2^6-dimethyl-3-oxo-5^2,5^3-dihydro-1^1H,5^1H-9-oxa-4-aza-5(2,1)-benzo[d]imidazola-2(2,4)-pyridina-1(4,5)-pyrazola-7(1,3)-cyclopentanacyclononaphane-5^6-yl)piperazin-1-yl)piperidin-1-yl)-3-fluorophenoxy)piperidine-2,6-dione] | 1.63 | 82.9 | 100.7 | 3 | 16.4 | 95.8 | 108.3 | 6.1 |
| COC[C@@H]1CN(c2ccc3c(c2)N2C[C@@H]4CC[C@H](COc5c(c(C)nn5C)-c5cc(cc(C)n5)C(=O)/N=C/2N3)C4)CCN1C1CCN(c2cc(F)c(C3CCC(=O)NC3=O)nc2C)CC1 (stereo partly drawn) [Example 89, 3-(3-fluoro-5-(4-((S)-2-(methoxymethyl)-4-((7^1R,7^3S,E)-1^1,1^3,2^6-trimethyl-3-oxo-5^2,5^3-dihydro-1^1H,5^1H-9-oxa-4-aza-5(2,1)-benzo[d]imidazola-2(2,4)-pyridina-1(4,5)-pyrazola-7(1,3)-cyclopentanacyclononaphane-5^6-yl)piperazin-1-yl)piperidin-1-yl)-6-methylpyridin-2-yl)piperidine-2,6-dione] | 1.64 | 87.5 | 101.2 | 1.9 | 1.75 | 73.9 | 99.7 | 8 |
| COC[C@H]1CN(c2ccc3c(c2)N2CC4CC[C@H](COc5c(c(C)nn5C)-c5cc(cc(C)n5)C(=O)/N=C/2N3)C4)CCN1C1CCN(c2cc(F)c(C3CCC(=O)NC3=O)nc2C)CC1 (stereo partly drawn) [Example 90, 3-(3-fluoro-5-(4-((R)-2-(methoxymethyl)-4-((7^1R,7^3S,E)-1^1,1^3,2^6-trimethyl-3-oxo-5^2,5^3-dihydro-1^1H,5^1H-9-oxa-4-aza-5(2,1)-benzo[d]imidazola-2(2,4)-pyridina-1(4,5)-pyrazola-7(1,3)-cyclopentanacyclononaphane-5^6-yl)piperazin-1-yl)piperidin-1-yl)-6-methylpyridin-2-yl)piperidine-2,6-dione] | 2.06 | 87.4 | 101.7 | 2.5 | 3.21 | 80.6 | 98.4 | 6.3 |
| COC[C@H]1CN(c2ccc3c(c2)N2CC4CC[C@H](COc5c(c(C)nn5C)-c5cc(cc(C)n5)C(=O)/N=C/2N3)C4)CCN1C1CCN(c2cc(F)c([C@H]3CCC(=O)NC3=O)c(F)c2)CC1 [Example 91, (R)-3-(2,6-difluoro-4-(4-((R)-2-(methoxymethyl)-4-((7R,7^3S,E)-1^1,1^3,2^6-trimethyl-3-oxo-5^2,5^3-dihydro-1^1H,5^1H-9-oxa-4-aza-5(2,1)-benzo[d]imidazola-2(2,4)-pyridina-1(4,5)-pyrazola-7(1,3)-cyclopentanacyclononaphane-5^6-yl)piperazin-1-yl)piperidin-1-yl)phenyl)piperidine-2,6-dione] | 2.28 | 88.7 | 100.8 | 2.2 | 2.04 | 81.5 | 97.1 | 3.5 |
| Cc1cc2cc(n1)-c1cnn(C)c1OC[C@H]1CCC(C1)CN1/C(=N/C2=O)Nc2ccc(N3CCN(C4CCN(c5c(F)cc(NC6CCC(=O)NC6=O)cc5F)CC4)CC3)cc21 (stereo partly shown) [Example 92, 3-((4-(4-(4-((7^1R,7^3S,E)-1^1,2^6-dimethyl-3-oxo-5^2,5^3-dihydro-1^1H,5^1H-9-oxa-4-aza-5(2,1)-benzo[d]imidazola-2(2,4)-pyridina-1(4,5)-pyrazola-7(1,3)-cyclopentanacyclononaphane-5^6-yl)piperazin-1-yl)piperidin-1-yl)-3,5-difluorophenyl)amino)piperidine-2,6-dione] | 3.12 | 79.8 | 100.1 | 1 | 1.97 | 85.8 | 97.2 | 10 |
| COC[C@@H]1CN(c2ccc3c(c2)N2CC4CC[C@H](COc5c(cnn5C)-c5cc(cc(C)n5)C(=O)/N=C/2N3)C4)CCN1C1CCN(c2c(F)cc(NC3CCC(=O)NC3=O)cc2F)CC1 (stereo partly drawn) [Example 93, 3-((4-(4-((S)-4-((7^1R,7^3S,E)-1^1,2^6-dimethyl-3-oxo-5^2,5^3-dihydro-1^1H,5^1H-9-oxa-4-aza-5(2,1)-benzo[d]imidazola-2(2,4)-pyridina-1(4,5)-pyrazola-7(1,3)-cyclopentanacyclononaphane-5^6-yl)-2-(methoxymethyl)piperazin-1-yl)piperidin-1-yl)-3,5-difluorophenyl)amino)piperidine-2,6-dione] | 7.66 | 83.8 | 100.3 | 2 | 9.09 | 77.4 | 96.9 | 19.6 |
